According to ChEMBL document CHEMBL1201862, “PubChem BioAssay data set” (2004):
The source made the active and inactive calls.

Legend:
[1] = biological target: Heat shock protein HSP 90-alpha (Homo sapiens, UniProt P07900); assay type: functional, organism-based
Genome polyprotein = Genome polyprotein (dengue virus type 2, UniProt P29990); assay: flavivirus cap methylation enzyme inhibition – biochemical, confirmation dose response, primary screen (AID 588689); assay type: functional
[2] = biological target: Glucose-6-phosphate 1-dehydrogenase (Homo sapiens, UniProt P11413); assay: inhibition of Homo sapiens G6PD, dose series – biochemical, fluorescence, selectivity assay for P. falciparum G6PD inhibitor project, dose response (AID 504792); assay type: functional
[3] = bead-based luminescence quenchers, dual-tagged ARNT – biochemical, AlphaScreen, cherry-pick, artefact control for ARNT-TACC3 interaction inhibitor project, dose response (AID 651705); assay type: functional;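 note: AlphaScreen bead proximity signal that flags compounds interfering with the detection technology; potency reflects signal decrease which marks the compound as an assay artifact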
[4] = biological target: Nuclear receptor subfamily 5 group A member 2 (Homo sapiens, UniProt O00482); assay type: functional, cell-based;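 note: HEK293T cells transfected with LRH-1 and a StAR promoter luciferase reporter; potency for inhibitors that lower LRH-1 driven reporter light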
[5] = nonselective StAR promoter luciferase inhibitors – cell-based, luminescence, luciferase reporter, counter-screen for LRH-1 inverse agonist project, dose response (AID 651969); assay type: functional
Steroidogenic factor 1 = Steroidogenic factor 1 (Homo sapiens, UniProt Q13285); assay: Counterscreen for inverse agonists of the liver receptor homolog-1 (LRH-1; NR5A2): Luminescence-based cell-based high throughput dose response assay to identify inverse agonists of the Steroidogenic Factor 1 Nuclear Receptor (SF1; NR5A1).; assay type: functional
[6] = biological target: T1, Short transient receptor potential channel 4 (Mus musculus, UniProt Q9QUQ5); assay: block of DAMGO-driven TRPC4 calcium entry – cell-based, HEK293 TRPC4/mu-opioid, Fluo-4 calcium, dose response (AID 434942); assay type: functional;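 note: potency of inhibitors blocking the TRPC4 calcium response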
T1 sequence (Q9QUQ5 whole entry): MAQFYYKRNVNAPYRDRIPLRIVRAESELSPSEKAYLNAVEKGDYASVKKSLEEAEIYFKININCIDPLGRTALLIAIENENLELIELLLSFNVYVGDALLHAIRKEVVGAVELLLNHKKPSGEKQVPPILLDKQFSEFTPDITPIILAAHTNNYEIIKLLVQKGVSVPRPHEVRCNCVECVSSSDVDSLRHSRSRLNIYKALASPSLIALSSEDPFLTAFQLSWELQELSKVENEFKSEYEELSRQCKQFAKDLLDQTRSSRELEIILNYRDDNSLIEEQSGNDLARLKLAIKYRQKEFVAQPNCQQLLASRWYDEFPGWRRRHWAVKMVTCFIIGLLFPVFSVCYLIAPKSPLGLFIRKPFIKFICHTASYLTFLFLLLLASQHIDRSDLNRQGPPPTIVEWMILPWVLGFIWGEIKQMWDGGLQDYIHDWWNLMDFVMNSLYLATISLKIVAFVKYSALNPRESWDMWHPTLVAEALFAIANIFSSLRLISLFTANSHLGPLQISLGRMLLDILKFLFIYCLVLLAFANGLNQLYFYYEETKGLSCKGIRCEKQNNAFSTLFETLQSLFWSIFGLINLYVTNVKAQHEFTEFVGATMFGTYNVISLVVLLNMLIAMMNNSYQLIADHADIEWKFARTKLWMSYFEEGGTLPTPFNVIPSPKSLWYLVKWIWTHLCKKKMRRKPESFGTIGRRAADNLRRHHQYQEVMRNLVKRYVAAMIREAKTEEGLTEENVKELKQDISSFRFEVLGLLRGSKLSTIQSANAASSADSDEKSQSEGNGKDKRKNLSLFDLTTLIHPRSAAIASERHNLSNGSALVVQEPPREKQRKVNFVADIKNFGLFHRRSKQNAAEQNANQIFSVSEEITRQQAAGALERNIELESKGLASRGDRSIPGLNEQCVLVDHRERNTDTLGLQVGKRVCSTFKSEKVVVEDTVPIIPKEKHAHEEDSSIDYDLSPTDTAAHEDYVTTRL

[7] = biological target: T2, DNA repair protein RAD52 homolog (Homo sapiens, UniProt P43351); assay type: functional, biochemical
T2 sequence (P43351 whole entry): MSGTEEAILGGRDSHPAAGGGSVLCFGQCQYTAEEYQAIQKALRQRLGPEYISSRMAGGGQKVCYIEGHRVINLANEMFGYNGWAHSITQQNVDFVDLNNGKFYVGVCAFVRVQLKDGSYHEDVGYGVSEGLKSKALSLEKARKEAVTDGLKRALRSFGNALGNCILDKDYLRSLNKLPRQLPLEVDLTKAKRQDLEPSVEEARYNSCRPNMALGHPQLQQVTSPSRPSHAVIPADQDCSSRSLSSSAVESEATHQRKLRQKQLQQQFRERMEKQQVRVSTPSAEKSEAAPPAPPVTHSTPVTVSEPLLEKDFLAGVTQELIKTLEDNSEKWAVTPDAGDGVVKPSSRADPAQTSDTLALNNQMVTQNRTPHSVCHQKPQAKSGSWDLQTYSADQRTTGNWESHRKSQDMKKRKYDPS

[8] = biological target: T3, DNA repair and recombination protein RAD54-like (Homo sapiens, UniProt Q92698); assay: RAD54 Holliday junction migration blockers – biochemical, fluorescence, cherry-picked samples, dose series, confirmation (AID 651657); assay type: functional
T3 sequence (Q92698 whole entry): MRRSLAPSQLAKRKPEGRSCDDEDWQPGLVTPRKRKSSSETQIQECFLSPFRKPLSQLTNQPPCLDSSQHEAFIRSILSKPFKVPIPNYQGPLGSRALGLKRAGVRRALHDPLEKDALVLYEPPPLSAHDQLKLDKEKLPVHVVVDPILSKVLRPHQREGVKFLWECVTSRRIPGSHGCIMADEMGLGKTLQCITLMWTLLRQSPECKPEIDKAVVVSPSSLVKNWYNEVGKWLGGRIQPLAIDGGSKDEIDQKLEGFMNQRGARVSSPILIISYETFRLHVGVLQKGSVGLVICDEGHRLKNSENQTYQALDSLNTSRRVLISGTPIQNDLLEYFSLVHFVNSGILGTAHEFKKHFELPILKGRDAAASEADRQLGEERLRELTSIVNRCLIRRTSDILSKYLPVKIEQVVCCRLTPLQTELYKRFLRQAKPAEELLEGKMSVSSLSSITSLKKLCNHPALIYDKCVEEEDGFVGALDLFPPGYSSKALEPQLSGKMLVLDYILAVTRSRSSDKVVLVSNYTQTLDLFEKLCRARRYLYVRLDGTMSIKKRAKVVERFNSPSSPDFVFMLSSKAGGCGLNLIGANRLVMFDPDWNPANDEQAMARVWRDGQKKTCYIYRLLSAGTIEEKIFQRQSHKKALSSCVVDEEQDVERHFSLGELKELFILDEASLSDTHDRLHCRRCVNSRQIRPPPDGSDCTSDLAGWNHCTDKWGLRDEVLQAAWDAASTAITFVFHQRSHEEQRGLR

Protein skinhead-1 = biological target: T4, Protein skinhead-1 (Caenorhabditis elegans, UniProt P34707); assay type: functional
T4 sequence (P34707 whole entry): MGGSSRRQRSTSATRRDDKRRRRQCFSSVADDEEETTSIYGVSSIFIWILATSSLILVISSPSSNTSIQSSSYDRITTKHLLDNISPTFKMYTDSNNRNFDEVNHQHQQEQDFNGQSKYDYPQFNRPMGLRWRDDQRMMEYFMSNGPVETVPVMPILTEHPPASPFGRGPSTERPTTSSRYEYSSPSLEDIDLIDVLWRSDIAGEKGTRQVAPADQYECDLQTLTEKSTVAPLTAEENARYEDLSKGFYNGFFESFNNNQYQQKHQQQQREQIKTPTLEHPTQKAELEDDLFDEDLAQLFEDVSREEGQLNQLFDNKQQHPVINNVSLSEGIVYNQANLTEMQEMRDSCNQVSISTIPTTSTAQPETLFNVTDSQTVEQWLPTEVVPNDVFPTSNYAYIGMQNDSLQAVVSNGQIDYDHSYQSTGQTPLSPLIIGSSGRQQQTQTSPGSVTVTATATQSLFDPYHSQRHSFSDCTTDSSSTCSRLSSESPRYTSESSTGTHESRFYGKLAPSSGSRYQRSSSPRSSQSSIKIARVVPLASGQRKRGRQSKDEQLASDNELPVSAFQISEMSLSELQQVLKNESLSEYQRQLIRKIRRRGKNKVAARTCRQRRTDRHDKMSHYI

[9] = Trypanosoma cruzi growth suppression in host cells – NIH3T3 host cells, beta-gal luminescence, confirmation (AID 2044); assay type: functional, cell-based;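 note: intracellular parasites grown in NIH/3T3 mouse fibroblasts as host cells; luminescent beta-galactosidase reporter signal from transgenic T. cruzi replicating inside host cells; inhibitors lower the luminescence signal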
[10] = NIH3T3 cell viability loss – ATP luminescence, mouse fibroblasts, counter-screen, dose response (AID 2010); assay type: functional, cell-based;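 note: cells exposed to compound for about 90 hours before reading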
Cytochrome P450 2C19 = Cytochrome P450 2C19 (Homo sapiens, UniProt P33261); assay: Cytochrome panel assay with activity outcomes. Panel member name: p450-cyp2c19 Compounds with AC50 equal or less than 10 uM are considered active; assay type: functional; conditions: read-out: AC50
Cytochrome P450 2D6 = Cytochrome P450 2D6 (Homo sapiens, UniProt P10635);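 note: CYP2D6 member of a cytochrome P450 panel assay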
[11] = Vero E6 cell cytotoxicity, dose response, cytotoxicity control for non-replicating M. tuberculosis project, secondary assay (AID 492998); assay type: functional, VeroE6; conditions: Vero C1008
[12] = THP-1 cell cytotoxicity, dose response, cytotoxicity control for non-replicating M. tuberculosis project (AID 489025); assay type: functional
cells = assay type: functional
[13] = tested on: Streptococcus sp. 'group A'; assay: Streptococcus pyogenes SK(-)GAS viability under kanamycin – luminescence, BacTiterGlo, confirmation, counter-screen for streptokinase expression inhibitor project, dose response (AID 1900); assay type: functional, organism-based
Streptococcus = assay: GAS UMAA2166 growth inhibition – luminescence, BacTiterGlo, counter-screen for streptokinase expression inhibitor project, dose response (AID 1915); assay type: functional, organism-based;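 note: potency for reduction of bacterial viability or growth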
Streptokinase A = biological target: T5, Streptokinase A (Streptococcus pyogenes serotype M1, UniProt P10520); assay: viability-normalized secreted streptokinase activity reduction – plasminogen activation absorbance, OD405, dose response (AID 1914); assay type: functional, Streptococcus pyogenes M1 GAS;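 note: secreted streptokinase activity via plasminogen activation per viability signal from cell pellet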
T5 sequence (P10520 whole entry): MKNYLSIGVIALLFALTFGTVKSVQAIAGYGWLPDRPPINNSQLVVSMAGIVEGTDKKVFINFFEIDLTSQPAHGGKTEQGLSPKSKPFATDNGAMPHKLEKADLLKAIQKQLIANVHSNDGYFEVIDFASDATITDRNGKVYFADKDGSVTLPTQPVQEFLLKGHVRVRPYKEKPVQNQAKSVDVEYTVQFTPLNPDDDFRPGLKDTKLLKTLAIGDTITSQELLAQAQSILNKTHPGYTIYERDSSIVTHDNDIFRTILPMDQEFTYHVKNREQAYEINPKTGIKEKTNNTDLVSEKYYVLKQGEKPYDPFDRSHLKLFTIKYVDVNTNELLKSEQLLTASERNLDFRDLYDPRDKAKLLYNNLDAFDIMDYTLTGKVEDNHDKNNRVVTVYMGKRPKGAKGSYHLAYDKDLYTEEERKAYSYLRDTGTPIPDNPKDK

Beta-galactosidase = Beta-galactosidase (Escherichia coli, UniProt Q8VNN2); assay: PubChem AID 485352; assay type: functional
[14] = biological target: T6, Type-1 angiotensin II receptor (Homo sapiens, UniProt P30556); assay: antagonism of angiotensin II type 1 receptor – cell-based, uHTS hits, selectivity assay for APJ receptor antagonist project, dose response (AID 463214); assay type: functional;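 note: antagonist potency against angiotensin II stimulated AT1 response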
T6 sequence (P30556 whole entry): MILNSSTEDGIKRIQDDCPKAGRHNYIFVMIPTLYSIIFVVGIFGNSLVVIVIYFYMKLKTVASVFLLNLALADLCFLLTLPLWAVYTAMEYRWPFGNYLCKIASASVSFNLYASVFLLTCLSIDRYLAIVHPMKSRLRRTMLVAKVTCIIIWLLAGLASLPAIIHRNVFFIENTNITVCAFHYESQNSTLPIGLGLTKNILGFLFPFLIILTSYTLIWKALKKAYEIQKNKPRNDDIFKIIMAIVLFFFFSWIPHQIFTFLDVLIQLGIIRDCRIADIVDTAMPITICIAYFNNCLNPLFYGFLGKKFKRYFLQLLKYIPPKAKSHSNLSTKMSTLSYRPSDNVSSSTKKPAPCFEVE

Chain of Nuclear receptor subfamily 5 group A member 2 (O00482 whole entry): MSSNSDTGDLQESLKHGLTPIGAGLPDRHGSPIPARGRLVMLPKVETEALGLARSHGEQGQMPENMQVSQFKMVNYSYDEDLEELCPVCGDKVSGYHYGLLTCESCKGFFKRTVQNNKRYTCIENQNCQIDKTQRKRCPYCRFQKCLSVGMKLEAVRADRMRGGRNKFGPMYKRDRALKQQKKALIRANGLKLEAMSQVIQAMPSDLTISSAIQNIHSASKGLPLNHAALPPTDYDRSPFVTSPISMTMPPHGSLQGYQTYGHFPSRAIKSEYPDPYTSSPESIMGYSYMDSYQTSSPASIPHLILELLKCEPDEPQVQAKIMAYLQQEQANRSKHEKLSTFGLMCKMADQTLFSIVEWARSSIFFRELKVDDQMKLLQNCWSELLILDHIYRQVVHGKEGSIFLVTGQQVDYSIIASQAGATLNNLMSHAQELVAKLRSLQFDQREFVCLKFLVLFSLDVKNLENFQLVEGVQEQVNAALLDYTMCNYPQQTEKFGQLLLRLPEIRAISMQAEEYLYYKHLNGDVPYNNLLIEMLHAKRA
Chain of Steroidogenic factor 1 (Q13285 whole entry): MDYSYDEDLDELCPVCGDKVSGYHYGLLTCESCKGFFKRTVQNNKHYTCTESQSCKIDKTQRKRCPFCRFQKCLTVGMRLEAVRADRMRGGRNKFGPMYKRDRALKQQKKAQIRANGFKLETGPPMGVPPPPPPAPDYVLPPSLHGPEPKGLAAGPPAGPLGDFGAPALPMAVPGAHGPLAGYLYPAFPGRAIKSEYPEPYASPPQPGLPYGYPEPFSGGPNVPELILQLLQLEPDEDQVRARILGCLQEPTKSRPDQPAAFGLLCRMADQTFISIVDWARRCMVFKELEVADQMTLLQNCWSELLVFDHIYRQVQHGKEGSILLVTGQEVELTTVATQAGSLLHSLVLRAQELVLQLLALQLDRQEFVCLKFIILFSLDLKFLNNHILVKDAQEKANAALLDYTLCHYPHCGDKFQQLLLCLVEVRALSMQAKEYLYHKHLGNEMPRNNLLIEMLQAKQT
Chain of Glucose-6-phosphate 1-dehydrogenase (P11413 whole entry): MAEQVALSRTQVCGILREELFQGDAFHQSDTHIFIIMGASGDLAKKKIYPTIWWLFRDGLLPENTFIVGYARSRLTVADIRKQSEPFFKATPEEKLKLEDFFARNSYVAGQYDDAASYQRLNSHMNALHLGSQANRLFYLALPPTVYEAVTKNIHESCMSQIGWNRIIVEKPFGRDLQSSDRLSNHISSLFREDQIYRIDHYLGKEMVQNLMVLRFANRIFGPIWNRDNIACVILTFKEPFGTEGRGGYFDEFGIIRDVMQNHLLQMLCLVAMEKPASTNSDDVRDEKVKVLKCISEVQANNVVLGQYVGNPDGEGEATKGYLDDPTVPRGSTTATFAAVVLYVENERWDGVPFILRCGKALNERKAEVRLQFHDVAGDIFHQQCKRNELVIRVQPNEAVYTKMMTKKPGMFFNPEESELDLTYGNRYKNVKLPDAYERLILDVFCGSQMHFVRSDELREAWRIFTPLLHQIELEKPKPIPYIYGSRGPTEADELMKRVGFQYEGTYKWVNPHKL
Chain of Cytochrome P450 2D6 (P10635 whole entry): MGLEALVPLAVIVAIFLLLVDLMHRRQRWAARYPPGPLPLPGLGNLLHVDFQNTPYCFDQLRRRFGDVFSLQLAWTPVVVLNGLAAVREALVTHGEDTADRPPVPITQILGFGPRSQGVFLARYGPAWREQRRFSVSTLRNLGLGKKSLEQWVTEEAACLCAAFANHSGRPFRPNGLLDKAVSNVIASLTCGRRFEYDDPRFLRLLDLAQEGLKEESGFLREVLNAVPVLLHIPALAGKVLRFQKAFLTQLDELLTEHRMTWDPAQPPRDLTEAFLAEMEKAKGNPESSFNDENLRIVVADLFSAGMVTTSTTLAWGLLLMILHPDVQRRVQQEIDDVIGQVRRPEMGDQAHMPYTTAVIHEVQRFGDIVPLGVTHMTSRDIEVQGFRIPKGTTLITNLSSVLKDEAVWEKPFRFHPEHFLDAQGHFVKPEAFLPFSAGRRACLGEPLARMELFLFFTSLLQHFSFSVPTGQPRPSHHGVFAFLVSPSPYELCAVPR
Chain of Genome polyprotein (P29990 2492-3391 limits assumed): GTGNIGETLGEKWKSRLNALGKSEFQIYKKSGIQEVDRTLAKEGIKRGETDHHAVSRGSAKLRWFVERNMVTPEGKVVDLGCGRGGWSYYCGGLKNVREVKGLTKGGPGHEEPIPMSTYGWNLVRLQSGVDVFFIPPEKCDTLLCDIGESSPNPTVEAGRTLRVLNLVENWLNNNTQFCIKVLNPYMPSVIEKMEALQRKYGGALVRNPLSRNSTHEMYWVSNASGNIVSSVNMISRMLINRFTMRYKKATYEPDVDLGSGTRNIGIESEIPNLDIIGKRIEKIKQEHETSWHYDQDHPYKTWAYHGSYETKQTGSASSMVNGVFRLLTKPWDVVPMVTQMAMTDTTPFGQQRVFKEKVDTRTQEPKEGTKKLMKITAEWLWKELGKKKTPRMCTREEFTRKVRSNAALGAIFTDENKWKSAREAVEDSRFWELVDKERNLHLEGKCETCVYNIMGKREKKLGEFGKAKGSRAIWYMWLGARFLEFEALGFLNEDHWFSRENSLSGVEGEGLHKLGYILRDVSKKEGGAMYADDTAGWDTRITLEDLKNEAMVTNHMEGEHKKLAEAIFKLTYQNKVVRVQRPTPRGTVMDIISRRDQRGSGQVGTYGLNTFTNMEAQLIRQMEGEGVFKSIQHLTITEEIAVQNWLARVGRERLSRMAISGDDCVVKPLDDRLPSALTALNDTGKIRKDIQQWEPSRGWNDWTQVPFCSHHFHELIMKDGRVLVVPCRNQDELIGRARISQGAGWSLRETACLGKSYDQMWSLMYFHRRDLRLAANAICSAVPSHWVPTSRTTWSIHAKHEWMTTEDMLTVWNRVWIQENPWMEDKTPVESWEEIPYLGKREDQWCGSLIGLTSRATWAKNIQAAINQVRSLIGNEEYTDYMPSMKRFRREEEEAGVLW
Chain of Beta-galactosidase (Q8VNN2 whole entry): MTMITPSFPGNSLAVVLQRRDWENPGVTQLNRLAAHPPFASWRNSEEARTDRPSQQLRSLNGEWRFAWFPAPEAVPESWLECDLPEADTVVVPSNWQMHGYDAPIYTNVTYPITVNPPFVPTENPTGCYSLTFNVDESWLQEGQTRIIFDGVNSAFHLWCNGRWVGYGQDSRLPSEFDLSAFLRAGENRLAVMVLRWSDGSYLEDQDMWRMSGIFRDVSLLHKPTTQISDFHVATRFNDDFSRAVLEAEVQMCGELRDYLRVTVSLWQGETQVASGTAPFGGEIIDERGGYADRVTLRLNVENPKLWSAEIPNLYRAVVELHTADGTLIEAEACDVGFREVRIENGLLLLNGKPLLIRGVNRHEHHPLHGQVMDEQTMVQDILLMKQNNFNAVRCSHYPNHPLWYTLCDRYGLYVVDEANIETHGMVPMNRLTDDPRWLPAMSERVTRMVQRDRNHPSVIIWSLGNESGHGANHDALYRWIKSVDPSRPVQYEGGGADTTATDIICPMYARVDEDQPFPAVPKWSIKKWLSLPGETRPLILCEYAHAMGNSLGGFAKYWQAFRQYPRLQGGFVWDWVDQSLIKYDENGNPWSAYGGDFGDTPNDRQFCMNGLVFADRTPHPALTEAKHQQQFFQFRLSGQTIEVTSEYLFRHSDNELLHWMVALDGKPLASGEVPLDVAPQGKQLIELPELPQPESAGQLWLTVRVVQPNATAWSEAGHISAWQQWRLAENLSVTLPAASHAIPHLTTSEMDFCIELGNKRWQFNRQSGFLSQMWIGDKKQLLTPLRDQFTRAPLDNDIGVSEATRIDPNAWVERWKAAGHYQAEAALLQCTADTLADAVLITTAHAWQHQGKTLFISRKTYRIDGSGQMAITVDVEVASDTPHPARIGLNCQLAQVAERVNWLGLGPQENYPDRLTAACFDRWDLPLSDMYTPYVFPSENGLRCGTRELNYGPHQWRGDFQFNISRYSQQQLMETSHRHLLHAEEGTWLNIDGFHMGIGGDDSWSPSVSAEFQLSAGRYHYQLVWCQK
Chain of Cytochrome P450 2C19 (P33261 whole entry): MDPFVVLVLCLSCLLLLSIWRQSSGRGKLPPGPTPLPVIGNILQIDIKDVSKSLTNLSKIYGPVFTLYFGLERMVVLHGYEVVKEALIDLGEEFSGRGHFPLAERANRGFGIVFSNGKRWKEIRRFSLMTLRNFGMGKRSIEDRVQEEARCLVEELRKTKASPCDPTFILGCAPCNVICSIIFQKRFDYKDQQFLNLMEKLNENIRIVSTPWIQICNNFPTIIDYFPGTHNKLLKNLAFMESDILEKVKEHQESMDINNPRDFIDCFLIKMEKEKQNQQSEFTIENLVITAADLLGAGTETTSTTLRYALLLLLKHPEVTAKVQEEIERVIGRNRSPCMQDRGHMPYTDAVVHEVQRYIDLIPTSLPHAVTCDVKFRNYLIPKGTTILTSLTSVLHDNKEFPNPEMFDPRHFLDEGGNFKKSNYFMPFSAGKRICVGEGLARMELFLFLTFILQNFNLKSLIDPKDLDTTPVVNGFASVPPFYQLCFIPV

CCN(CC)C1CC(=O)N(c2ccc(Br)cc2)C1=O (stereo not given)
AC50 [1]: 4.04 µM (active)

Oc1cc(CNCc2ccccc2)c(O)cc1CNCc1ccccc1
IC50 (Genome polyprotein): 37.4 µM (active) | IC50 [2]: > 80 µM (inactive)

C/C=C/c1ccc([C@@H]2[C@H](CO)N(Cc3ccccn3)[C@H]2CNC(C)=O)cc1
AC50 [3]: 83.2 µM (active)

COc1ccc(NC(=O)CN2C(=O)NC3(CCCC3)C2=O)cc1
IC50 [4]: 35.9 µM (inactive) | IC50 [5]: 35.9 µM (inactive) | IC50 (Steroidogenic factor 1): 35.9 µM (inactive)

OCC1(CCc2ccccc2)CCN(Cc2cc(Cl)ccc2O)CC1
EC50 [6]: 9.44 µM (active)

Cc1c(C)n(CCN(C)C)c2ccc(C(=O)OCCN(C)C)cc12
AC50 [7]: 1.31 µM (active) | AC50 [8]: 8.41 µM (active)

O=C(c1ccco1)N1CCN(C/C=C/c2ccccc2)CC1
EC50 [6]: 0.596 µM (active) | IC50 (Protein skinhead-1): > 100 µM (inactive)

Fc1ccc(CN2CCC(Cc3ccccc3)CC2)cc1F
EC50 [6]: 4.73 µM (active)

O=C(c1ccc(Cl)c(Cl)c1)N(Cc1ccco1)c1ccc(O)cc1
EC50 [6]: 8.41 µM (active)

COc1cccc(/C=N/NC(=O)c2c(C)nc3ccc(Br)cn23)c1
IC50 [2]: 36 µM (inactive)

COc1ccc(NS(=O)(=O)c2ccc(OCC(=O)N3CCN(C)CC3)cc2)cc1Cl
IC50 [4]: 9.48 µM (active) | EC50 [9]: 0.524 µM (active) | IC50 [5]: 35.9 µM (inactive) | IC50 (Steroidogenic factor 1): 5.92 µM (active) | EC50 [10]: > 30 µM (not active)

Cc1cc(C)c2c(N=NN(C)C)[nH]nc2n1
AC50 [1]: 3.96 µM (active) | AC50 (Cytochrome P450 2C19): 39.8 µM (inconclusive) | AC50 (Cytochrome P450 2D6): 14.1 µM (inconclusive)

C=CCc1ccc(OCC(O)CN2CCN(Cc3ccc(Cl)cc3)CC2)c(OC)c1 (stereo not given)
CC50 [11]: > 20 µM (active) | CC50 [12]: > 40 µM (active) | IC50 (cells): 23.3 µM (active)

COc1cc(/C=N/NC(N)=S)ccc1OCC(=O)Nc1ccc(C)cc1
IC50 [4]: 35.9 µM (inactive) | IC50 [5]: 35.9 µM (inactive) | IC50 (Steroidogenic factor 1): 8.04 µM (active)

O=C(/C=C/c1cccc(C(F)(F)F)c1)Nc1cccc(C(F)(F)F)c1
AC50 [1]: 4.19 µM (active) | EC50 [13]: 4.38 µM (active) | EC50 (Streptococcus): 4.93 µM (active) | EC50 (Streptokinase A): > 50 µM (not active)

CC(C)c1nc(C#N)c(NN)o1
EC50 (Beta-galactosidase): > 40 µM (inactive) | IC50 [14]: 25.3 µM (not active)
